In ChEMBL document CHEMBL5705888, “Substrate specificity and inhibitors of LRRK2, a protein kinase mutated in Parkinson's disease” (Biochem J, 2009):

Key:
[1] = target: T1, Interleukin-1 receptor-associated kinase 4 (Homo sapiens) (UniProt Q9NWZ3); test: Activity of IRAK4 (unknown origin) at 1 uM incubated for 30 mins in presence of [gamma-33P]ATP by multidrop micro reagent based assay relative to control
T1 sequence (whole entry): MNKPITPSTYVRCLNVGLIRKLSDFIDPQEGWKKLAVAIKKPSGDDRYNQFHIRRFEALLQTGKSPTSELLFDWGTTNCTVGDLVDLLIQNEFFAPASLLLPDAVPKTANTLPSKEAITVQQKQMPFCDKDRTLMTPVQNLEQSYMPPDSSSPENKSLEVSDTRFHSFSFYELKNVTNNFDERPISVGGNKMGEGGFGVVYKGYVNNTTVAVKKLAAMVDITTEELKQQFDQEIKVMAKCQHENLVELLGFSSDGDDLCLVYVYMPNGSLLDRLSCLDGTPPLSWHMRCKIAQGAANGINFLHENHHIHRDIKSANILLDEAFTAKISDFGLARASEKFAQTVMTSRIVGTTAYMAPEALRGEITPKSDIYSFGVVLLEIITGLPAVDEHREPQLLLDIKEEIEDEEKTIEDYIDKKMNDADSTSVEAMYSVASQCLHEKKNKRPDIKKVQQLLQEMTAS

[2] = target: T2, Serine/threonine-protein kinase 3 (Homo sapiens) (UniProt Q13188); test: Inhibition of MST2 (unknown origin) at 1 uM incubated for 30 mins in presence of [gamma-33P]ATP by multidrop micro reagent based assay relative to control; values are per cent of control
T2 sequence (whole entry): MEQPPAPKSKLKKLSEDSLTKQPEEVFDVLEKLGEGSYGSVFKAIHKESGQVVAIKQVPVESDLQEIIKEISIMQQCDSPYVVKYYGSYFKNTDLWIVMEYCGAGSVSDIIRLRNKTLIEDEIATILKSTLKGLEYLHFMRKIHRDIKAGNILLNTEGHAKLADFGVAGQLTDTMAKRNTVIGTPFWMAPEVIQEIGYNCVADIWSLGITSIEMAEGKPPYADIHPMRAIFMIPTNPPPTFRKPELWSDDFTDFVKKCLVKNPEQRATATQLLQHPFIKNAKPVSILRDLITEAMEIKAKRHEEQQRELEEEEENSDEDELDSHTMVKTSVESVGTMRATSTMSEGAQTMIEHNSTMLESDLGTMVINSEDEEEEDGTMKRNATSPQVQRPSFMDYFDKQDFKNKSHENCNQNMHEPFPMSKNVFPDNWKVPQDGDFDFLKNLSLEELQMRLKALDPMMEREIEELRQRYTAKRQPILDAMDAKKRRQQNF

[3] = target: T3, Leucine-rich repeat serine/threonine-protein kinase 2 (Homo sapiens, UniProt Q5S007); test: Inhibition of GST-tagged LRRK2 (1326 to 2527 residues) (unknown origin) using peptide as substrate incubated for 15 mins in presence of ATP by immunoblotting analysis
[4] = target: Glycogen synthase kinase-3 beta (Homo sapiens) (UniProt P49841); test: Inhibition of GSK3beta (unknown origin) at 1 uM incubated for 30 mins in presence of [gamma-33P]ATP by multidrop micro reagent based assay relative to control; values are per cent of control
Glycogen synthase kinase-3 beta (Homo sapiens), sequence (P49841 whole entry, looked up): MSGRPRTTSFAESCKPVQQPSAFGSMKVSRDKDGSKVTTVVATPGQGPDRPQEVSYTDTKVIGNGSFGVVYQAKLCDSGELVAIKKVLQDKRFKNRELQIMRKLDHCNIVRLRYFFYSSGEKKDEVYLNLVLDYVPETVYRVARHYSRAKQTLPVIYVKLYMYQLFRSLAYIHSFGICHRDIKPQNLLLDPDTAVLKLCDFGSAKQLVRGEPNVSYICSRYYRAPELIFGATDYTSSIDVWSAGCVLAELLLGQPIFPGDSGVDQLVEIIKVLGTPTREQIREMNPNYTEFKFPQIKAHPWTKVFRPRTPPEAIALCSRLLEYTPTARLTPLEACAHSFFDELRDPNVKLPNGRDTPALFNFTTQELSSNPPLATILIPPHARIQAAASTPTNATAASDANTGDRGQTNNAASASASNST

[5] = target: Mitogen-activated protein kinase 14 (Homo sapiens) (UniProt Q16539); test: Inhibition of p38alpha MAPK (unknown origin) at 1 uM incubated for 30 mins in presence of [gamma-33P]ATP by multidrop micro reagent based assay relative to control; values are per cent of control
Mitogen-activated protein kinase 14 (Homo sapiens), sequence (Q16539 whole entry): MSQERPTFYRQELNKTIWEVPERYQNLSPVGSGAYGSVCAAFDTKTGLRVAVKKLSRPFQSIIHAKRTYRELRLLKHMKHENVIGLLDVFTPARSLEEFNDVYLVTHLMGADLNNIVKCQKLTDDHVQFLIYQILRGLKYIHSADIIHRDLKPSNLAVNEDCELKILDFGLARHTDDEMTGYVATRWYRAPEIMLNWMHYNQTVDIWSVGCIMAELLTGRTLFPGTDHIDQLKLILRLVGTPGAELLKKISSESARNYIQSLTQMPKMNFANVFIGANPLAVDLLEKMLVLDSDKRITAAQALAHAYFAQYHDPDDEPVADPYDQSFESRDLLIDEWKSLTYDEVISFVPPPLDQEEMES

[6] = target: Serine/threonine-protein kinase Chk2 (Homo sapiens) (UniProt O96017); test: Inhibition of CHK2 (unknown origin) at 1 uM incubated for 30 mins in presence of [gamma-33P]ATP by multidrop micro reagent based assay relative to control; values are per cent of control
Serine/threonine-protein kinase Chk2 (Homo sapiens), sequence (O96017 whole entry): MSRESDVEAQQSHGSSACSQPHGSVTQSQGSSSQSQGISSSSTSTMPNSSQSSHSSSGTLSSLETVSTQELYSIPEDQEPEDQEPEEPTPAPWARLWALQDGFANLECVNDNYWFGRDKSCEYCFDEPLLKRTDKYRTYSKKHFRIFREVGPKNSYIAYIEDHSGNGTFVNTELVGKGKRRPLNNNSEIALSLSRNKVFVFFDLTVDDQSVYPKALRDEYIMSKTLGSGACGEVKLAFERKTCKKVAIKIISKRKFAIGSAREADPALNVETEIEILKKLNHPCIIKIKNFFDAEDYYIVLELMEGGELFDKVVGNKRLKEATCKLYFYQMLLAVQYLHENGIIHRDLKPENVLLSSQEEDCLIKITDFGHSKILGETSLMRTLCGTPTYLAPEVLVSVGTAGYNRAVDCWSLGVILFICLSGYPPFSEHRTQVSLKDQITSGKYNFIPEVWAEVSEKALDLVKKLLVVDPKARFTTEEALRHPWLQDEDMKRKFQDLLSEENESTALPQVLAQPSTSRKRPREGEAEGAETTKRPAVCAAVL

[7] = target: Misshapen-like kinase 1 (Homo sapiens) (UniProt Q8N4C8); test: Inhibition of MINK1 (unknown origin) at 1 uM incubated for 30 mins in presence of [gamma-33P]ATP by multidrop micro reagent based assay relative to control
Misshapen-like kinase 1 (Homo sapiens), sequence (Q8N4C8 whole entry, looked up): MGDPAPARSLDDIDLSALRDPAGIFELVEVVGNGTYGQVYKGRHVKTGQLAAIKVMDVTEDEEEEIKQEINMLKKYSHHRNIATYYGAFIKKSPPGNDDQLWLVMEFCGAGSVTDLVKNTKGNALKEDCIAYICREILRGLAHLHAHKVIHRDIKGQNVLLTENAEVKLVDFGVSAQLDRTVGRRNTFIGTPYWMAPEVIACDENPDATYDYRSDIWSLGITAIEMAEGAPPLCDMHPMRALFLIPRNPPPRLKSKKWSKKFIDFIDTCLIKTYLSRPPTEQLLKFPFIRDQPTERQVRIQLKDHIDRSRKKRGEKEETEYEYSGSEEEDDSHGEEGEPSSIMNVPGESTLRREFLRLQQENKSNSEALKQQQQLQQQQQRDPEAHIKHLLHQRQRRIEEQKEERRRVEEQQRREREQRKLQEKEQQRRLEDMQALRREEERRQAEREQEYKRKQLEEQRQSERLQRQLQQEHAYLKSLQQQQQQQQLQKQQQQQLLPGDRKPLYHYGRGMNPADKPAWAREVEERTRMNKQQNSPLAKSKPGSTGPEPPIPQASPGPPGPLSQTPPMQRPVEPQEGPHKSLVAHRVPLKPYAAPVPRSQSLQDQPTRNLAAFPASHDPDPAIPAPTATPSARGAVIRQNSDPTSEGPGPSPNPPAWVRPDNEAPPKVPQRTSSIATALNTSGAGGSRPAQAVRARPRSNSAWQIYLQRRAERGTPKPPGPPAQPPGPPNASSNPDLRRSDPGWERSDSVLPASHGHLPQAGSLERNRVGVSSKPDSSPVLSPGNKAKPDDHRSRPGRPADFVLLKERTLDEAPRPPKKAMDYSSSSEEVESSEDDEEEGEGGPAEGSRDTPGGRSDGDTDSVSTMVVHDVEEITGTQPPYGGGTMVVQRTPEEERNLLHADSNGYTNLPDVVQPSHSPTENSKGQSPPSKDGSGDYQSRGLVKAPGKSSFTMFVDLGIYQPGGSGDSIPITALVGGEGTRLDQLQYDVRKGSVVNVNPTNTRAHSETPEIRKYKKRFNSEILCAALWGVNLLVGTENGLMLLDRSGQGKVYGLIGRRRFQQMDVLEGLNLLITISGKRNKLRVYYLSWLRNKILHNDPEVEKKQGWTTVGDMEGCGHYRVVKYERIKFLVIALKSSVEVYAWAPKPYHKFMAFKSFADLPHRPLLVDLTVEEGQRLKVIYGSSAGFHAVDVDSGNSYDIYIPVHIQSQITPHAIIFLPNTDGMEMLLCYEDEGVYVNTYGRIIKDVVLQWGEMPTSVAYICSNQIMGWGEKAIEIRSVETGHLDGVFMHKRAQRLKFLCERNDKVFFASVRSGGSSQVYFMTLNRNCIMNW

[8] = target: Rho-associated protein kinase 2 (Homo sapiens, UniProt O75116); test: Inhibition of ROCK2 (unknown origin) at 1 uM incubated for 30 mins in presence of [gamma-33P]ATP by multidrop micro reagent based assay relative to control; values are per cent of control
[9] = system: Leucine-rich repeat serine/threonine-protein kinase 2 (Homo sapiens), Q5S007 [G2019S]; test: Inhibition of LRRK2 G2019S mutant (unknown origin) at 1 uM incubated for 30 mins in presence of [gamma-33P]ATP by multidrop micro reagent based assay relative to control; values are per cent of control
[10] = target: Fibroblast growth factor receptor 1 (Homo sapiens) (UniProt P11362); test: Inhibition of FGFR1 (unknown origin) at 1 uM incubated for 30 mins in presence of [gamma-33P]ATP by multidrop micro reagent based assay relative to control
Fibroblast growth factor receptor 1 (Homo sapiens), sequence (P11362 22-822 limits assumed): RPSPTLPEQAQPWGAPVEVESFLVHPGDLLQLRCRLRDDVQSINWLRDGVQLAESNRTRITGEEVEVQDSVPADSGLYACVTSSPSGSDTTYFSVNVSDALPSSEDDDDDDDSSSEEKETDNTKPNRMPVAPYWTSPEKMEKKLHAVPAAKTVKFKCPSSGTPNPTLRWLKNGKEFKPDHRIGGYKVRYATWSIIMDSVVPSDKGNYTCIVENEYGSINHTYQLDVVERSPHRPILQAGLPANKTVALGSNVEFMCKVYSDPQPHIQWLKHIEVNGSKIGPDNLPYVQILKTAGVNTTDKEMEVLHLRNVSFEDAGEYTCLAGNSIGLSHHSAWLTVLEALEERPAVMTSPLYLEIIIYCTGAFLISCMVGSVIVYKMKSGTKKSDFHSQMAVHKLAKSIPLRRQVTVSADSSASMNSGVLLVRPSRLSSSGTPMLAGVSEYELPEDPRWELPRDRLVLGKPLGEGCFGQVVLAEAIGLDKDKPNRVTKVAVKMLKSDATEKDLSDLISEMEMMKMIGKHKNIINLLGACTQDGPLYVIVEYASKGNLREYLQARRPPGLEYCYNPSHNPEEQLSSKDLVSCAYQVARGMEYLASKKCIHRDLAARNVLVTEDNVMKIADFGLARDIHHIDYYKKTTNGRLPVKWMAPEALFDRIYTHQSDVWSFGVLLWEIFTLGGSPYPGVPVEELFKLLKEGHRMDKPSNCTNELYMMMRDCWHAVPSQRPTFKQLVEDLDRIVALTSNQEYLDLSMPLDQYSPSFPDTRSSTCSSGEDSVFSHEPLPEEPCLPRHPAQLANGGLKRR

[11] = target: T3, Leucine-rich repeat serine/threonine-protein kinase 2; test: Inhibition of LRRK2 (unknown origin) at 1 uM incubated for 30 mins in presence of [gamma-33P]ATP by multidrop micro reagent based assay relative to control; values are per cent of control
[12] = target: Tyrosine-protein kinase CSK (Homo sapiens) (UniProt P41240); test: Inhibition of CSK (unknown origin) at 1 uM incubated for 30 mins in presence of [gamma-33P]ATP by multidrop micro reagent based assay relative to control
Tyrosine-protein kinase CSK (Homo sapiens), sequence (P41240 2-450 limits assumed): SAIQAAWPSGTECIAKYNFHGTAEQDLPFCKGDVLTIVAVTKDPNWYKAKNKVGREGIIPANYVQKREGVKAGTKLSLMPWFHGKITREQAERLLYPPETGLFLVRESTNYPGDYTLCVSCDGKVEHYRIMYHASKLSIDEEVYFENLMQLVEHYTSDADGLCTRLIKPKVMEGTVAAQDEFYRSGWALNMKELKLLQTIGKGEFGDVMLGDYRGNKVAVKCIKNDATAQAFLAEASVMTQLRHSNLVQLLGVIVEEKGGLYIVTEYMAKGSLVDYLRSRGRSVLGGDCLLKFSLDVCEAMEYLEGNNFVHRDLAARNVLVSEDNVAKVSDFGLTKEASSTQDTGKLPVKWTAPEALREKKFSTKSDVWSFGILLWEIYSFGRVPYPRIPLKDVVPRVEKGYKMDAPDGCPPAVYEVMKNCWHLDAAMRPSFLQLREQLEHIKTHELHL

[13] = target: Calcium/calmodulin-dependent protein kinase kinase 2 (Homo sapiens) (UniProt Q96RR4); test: Inhibition of CaMKKbeta (unknown origin) at 1 uM incubated for 30 mins in presence of [gamma-33P]ATP by multidrop micro reagent based assay relative to control; values are per cent of control
Calcium/calmodulin-dependent protein kinase kinase 2 (Homo sapiens), sequence (Q96RR4 2-588 limits assumed): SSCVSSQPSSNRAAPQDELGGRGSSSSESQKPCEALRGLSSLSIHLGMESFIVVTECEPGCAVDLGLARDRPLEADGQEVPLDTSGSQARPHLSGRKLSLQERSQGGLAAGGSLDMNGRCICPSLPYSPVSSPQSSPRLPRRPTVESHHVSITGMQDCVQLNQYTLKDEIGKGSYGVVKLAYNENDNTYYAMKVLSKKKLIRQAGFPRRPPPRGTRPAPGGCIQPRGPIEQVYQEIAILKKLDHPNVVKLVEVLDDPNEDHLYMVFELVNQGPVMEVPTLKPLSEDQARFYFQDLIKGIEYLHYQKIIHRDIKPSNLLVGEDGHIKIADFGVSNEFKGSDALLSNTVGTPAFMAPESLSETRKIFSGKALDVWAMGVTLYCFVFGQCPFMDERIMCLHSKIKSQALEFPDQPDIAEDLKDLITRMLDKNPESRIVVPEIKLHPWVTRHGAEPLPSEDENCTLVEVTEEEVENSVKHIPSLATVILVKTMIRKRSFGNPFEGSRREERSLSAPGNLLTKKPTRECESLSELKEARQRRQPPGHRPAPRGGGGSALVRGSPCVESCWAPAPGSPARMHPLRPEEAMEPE

[14] = target: Serine/threonine-protein kinase pim-3 (Homo sapiens) (UniProt Q86V86); test: Inhibition of PIM3 (unknown origin) at 1 uM incubated for 30 mins in presence of [gamma-33P]ATP by multidrop micro reagent based assay relative to control; values are per cent of control

Compound Cc1cncc2cccc(S(=O)(=O)N3CCCNC[C@@H]3C)c12 has a residual activity [1] of 102%, a residual activity [2] of 41% and an IC50 [3] of 0.244 µM. It also gave a residual activity [4] of 72%, a residual activity [5] of 109% and a residual activity [6] of 44%. The residual activity [7] was 104%, the residual activity [8] was 3% and the residual activity [9] was 13%. For the same compound, the inhibition [10] was 35%, the residual activity [11] was 20% and the inhibition [12] was 101%. It also gave a residual activity [13] of 81%.

With O=S(=O)(c1cccc2cnccc12)N1CCCNCC1 [FASUDIL] the IC50 [3] was greater than 30 µM.

In the case of CCn1c(-c2nonc2N)nc2cnc(Oc3cccc(NC(=O)c4ccc(OCCN5CCOCC5)cc4)c3)cc21 [GSK-269962A], the residual activity [1] is reported as 78%, the residual activity [2] is reported as 98% and the IC50 [3] is reported as 3.7 µM. It also gave a residual activity [4] of 12%, a residual activity [5] of 108% and a residual activity [7] of 70%. The residual activity [8] was 1%, the residual activity [9] was 66% and the residual activity [11] was 71%. The inhibition [12] was 98%, the residual activity [14] was 35% and the residual activity [13] was 98%.

Work on CC1=C(C(=O)Nc2cc3cn[nH]c3cc2F)C(c2ccc(C(F)(F)F)cc2)CC(=O)N1 (stereo unspecified) yielded a residual activity [1] of 94%, a residual activity [2] of 108% and an IC50 [3] greater than 100 µM. For the same compound, the residual activity [4] was 93%, the residual activity [5] was 103% and the residual activity [6] was 102%. The residual activity [7] was 75%, the residual activity [8] was 3% and the residual activity [9] was 97%. The inhibition [10] was 95%, the residual activity [11] was 98% and the inhibition [12] was 106%. The residual activity [14] was 89% and the residual activity [13] was 100%.

CCN(CC)CCNC(=O)c1c(C)[nH]c(/C=C2\C(=O)Nc3ccc(F)cc32)c1C gave a residual activity [6] of 5%, a residual activity [7] of 8% and a residual activity [8] of 67%. The inhibition [10] was 29%, the residual activity [14] was 50% and the residual activity [13] was 39%.
